Numbering of substitutions follows the chain as printed.
Experiments:
CPT II variant Y479F [1] = target: T1, CPT II variant Y479F (Homo sapiens, UniProt P23786, Y479F); experiment: Lipid binding assay (membrane lipid strips); details: 0.4 mg enzyme, 100 pmol lipid spots
T1 construct: made in house; host or cells: Escherichia coli BL21Gold DE
T1 sequence (P23786 26-658 Y479F): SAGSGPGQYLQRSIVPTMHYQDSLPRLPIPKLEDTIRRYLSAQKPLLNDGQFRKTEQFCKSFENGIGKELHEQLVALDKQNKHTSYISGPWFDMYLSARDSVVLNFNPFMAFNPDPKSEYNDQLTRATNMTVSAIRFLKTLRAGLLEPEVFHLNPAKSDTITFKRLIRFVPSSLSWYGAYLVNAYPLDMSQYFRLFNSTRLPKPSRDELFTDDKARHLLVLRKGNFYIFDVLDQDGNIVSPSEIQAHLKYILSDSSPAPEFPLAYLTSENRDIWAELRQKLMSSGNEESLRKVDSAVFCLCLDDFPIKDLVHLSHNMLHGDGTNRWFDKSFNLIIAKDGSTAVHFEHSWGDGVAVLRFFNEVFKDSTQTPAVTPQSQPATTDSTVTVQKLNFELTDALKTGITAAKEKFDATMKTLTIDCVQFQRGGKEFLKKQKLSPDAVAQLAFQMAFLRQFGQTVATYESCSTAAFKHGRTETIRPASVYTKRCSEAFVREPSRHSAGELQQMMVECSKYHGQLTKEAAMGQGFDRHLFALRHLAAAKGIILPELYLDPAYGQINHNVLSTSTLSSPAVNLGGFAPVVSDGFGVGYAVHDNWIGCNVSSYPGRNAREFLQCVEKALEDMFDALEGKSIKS
Protocol: (§1) Direct interaction of CPT II WT and variants with phospholipids of the mitochondrial membrane was assessed using membrane lipid strips (Echelon Biosciences, Salt Lake City, Utah, USA). The membrane was spotted with 100 pmol of various cell membrane lipids. The assay was performed following manufacturer’s instructions with some modifications explained in the following. At first, the membrane was washed twice in phosphate buffered saline (PBS). After 1 h incubation with blocking solution (3% BSA fatty acid-free in PBS) at room temperature, the membrane was incubated with purified CPT II WT or variant (final amount 0.4 mg protein) for 2 h at 4 °C. After three washing steps, a-His-Probe (H3) mouse monoclonal antibody (Santa Cruz Biotech, Santa Cruz, CA, USA, 1:1000 dilution in PBS containing 3% BSA) was added to the membrane over night at 4 °C. The membrane was washed three times with PBS and incubated with mouse IgG horseradish peroxidase-linked whole antibody (from sheep, Amersham, Little Chalfont, Buckinghamshire, UK) for 1 h at 4 °C. The interaction was visualized by ECL Western blotting detection reagents (Amersham, Little Chalfont, Buckinghamshire, UK).

CPT II WT [2] = target: T2, CPT II WT (Homo sapiens, UniProt P23786); experiment: Lipid binding assay (membrane lipid strips); details: 0.4 mg enzyme, 100 pmol lipid spots
T2 construct: made in house; host or cells: Escherichia coli BL21Gold DE
T2 sequence (P23786 26-658): T1 sequence (P23786 26-658 Y479F) with F454Y
Protocol: as §1

CPT II variant P50H [3] = target: T3, CPT II variant P50H (Homo sapiens, UniProt P23786, P50H); experiment: Lipid binding assay (membrane lipid strips); details: 0.4 mg enzyme, 100 pmol lipid spots
T3 construct: made in house; host or cells: Escherichia coli BL21Gold DE
T3 sequence (P23786 26-658 P50H): T1 sequence (P23786 26-658 Y479F) with P25H, F454Y
Protocol: as §1

CPT II variant S113L [4] = target: T4, CPT II variant S113L (Homo sapiens, UniProt P23786, S113L); experiment: Lipid binding assay (membrane lipid strips); details: 0.4 mg enzyme, 100 pmol lipid spots
T4 construct: made in house; host or cells: Escherichia coli BL21Gold DE
T4 sequence (P23786 26-658 S113L): T1 sequence (P23786 26-658 Y479F) with S88L, F454Y
Protocol: as §1

CPT II variant Y479F [5] = target: T1, CPT II variant Y479F; experiment: nanoDSF protein stability in presence of CL or β-OG; assay type: binding
Protocol: (§2) NanoDSF is a standard method for the investigation of the folding/unfolding of proteins and the interaction of proteins with effectors/ligands/substrates
(§3) The protein stability was investigated applying nano differential scanning fluorimetry (nanoDSF) using a protein concentration of 1 mg/mL in assay buffer. […] The heating rate has been set to 1 °C per min. A heating ramp from 15 to 95 °C was determined. The nanoDSF data were obtained using a Prometheus NT.48 device. First derivatives were calculated using PR.ThermControl software (NanoTemper Technologies GmbH, Munich, Germany). Experiments were performed at least three times independently as double determination.

CPT II WT [6] = target: T2, CPT II WT; experiment: as above; assay type: binding
Protocol: as §2, §3

CPT II variant P50H [7] = target: T3, CPT II variant P50H; experiment: as above; assay type: binding; details: 1 mg/mL protein
Protocol: as §2, §3

CPT II variant S113L [8] = target: T4, CPT II variant S113L; experiment: as above; assay type: binding
Protocol: as §2, §3

[9] = reference TM of WT in buffer (ΔTM = 0 °C)

| Molecule | Signal for interaction on membrane lipid strips (CPT II variant Y479F [1]) | Signal for interaction on membrane lipid strips (CPT II WT [2]) | Signal for interaction on membrane lipid strips (CPT II variant P50H [3]) | Signal for interaction on membrane lipid strips (CPT II variant S113L [4]) | other results |
| --- | --- | --- | --- | --- | --- |
| phosphatidylserine [PS] |  |  | reduced |  |  |
| phosphatidylinositol (3,4,5)-trisphosphate [PtdIns(3,4,5)P3] | highest signal | highest signal | highest signal | highest signal |  |
| CCCCCCCCO[C@@H]1O[C@H](CO)[C@@H](O)[C@H](O)[C@H]1O [β-OG, n-octyl-β-d-glucopyranoside] |  |  |  |  | TM in Buffer with 1 % β-OG (CPT II variant Y479F [5]; 1 mg/mL protein): 49.0 ± 0.5 °C; ∆TM in Buffer with 1 % β-OG (CPT II variant Y479F [5]; [9]): 12.1 ± 0.5 °C; TM in Buffer with 1 % β-OG (CPT II WT [6]; 1 mg/mL protein): 49.9 ± 0.7 °C; ∆TM in Buffer with 1 % β-OG (CPT II WT [6]; [9]): 13.0 ± 0.7 °C; TM in Buffer with 1 % β-OG (CPT II variant P50H [7]): 43.5 ± 0.4 °C; TM in Buffer with 1 % β-OG (CPT II variant S113L [8]; 1 mg/mL protein): 45.3 ± 0.6 °C; ∆TM in Buffer with 1 % β-OG (CPT II variant S113L [8]; [9]): 8.4 ± 0.6 °C |

Now from value to molecule, other results behind:

| Signal for interaction on membrane lipid strips (CPT II variant Y479F [1]) | Signal for interaction on membrane lipid strips (CPT II WT [2]) | Signal for interaction on membrane lipid strips (CPT II variant P50H [3]) | Signal for interaction on membrane lipid strips (CPT II variant S113L [4]) | Molecule | other results |
| --- | --- | --- | --- | --- | --- |
| highest signal | highest signal | highest signal | highest signal | phosphatidylinositol (4,5)-bisphosphate [PtdIns(4,5)P2] |  |
|  |  | lower detection signal | lower detection signal | phosphatidylglycerol [PG] |  |
| interaction with PI was detected | interaction with PI was detected | No signal | interaction with PI was detected | phosphatidylinositol [PI] |  |

Source: article PMC8125234, “Cardiolipin Stabilizes and Increases Catalytic Efficiency of Carnitine Palmitoyltransferase II and Its Variants S113L, P50H, and Y479F” (International Journal of Molecular Sciences, 2021)
